Literature values as cited in paper PMC6683083, “Lupin Peptide T9 (GQEQSHQDEGVIVR) Modulates the Mutant PCSK9^D374Y Pathway: in vitro Characterization of its Dual Hypocholesterolemic Behavior” (Nutrients, 2019).
pIC50: −log10 of the molar value. Like-named read-outs stand apart in the source and are kept apart here.

Columns and labels:
[1] = target: T1, HMGCoAR (Homo sapiens, UniProt P04035); parameters: method as in 4 sources, ref [16],[18] = [16]; doi:10.1016/j.jff.2017.02.009; 16. Zanoni C. Aiello G. Arnoldi A. Lammi C. Investigations on the hypocholesterolaemic activity of LILPKHSDAD and LTFPGSAED, two peptides from lupin beta-conglutin: Focus on LDLR and PCSK9 pathways J || [18]; doi:10.1111/jfbc.12524; 18. Lammi C. Zanoni C. Arnoldi A. Aiello G. YDFYPSSTKDQQS (P3), a peptide from lupin protein, absorbed by Caco-2 cells, modulates cholesterol metabolism in HepG2 cells via SREBP-1 activation J. Food B ||| ref [19],[20],[21] = [19]; doi:10.1016/j.jff.2015.02.021; 19. Lammi C. Zanoni C. Arnoldi A. IAVPGEVA, IAVPTGVA, and LPYP, three peptides from soy glycinin, modulate cholesterol metabolism in HepG2 cells through the activation of the LDLR-SREBP2 pathway J. Fu || [20]; PMID 26310992; doi:10.1021/acs.jafc.5b03497; 20. Lammi C. Zanoni C. Vistoli G. Arnoldi A. Two Peptides from Soy β-Conglycinin Induce a Hypocholesterolemic Effect in HepG2 Cells by a Statin-Like Mechanism: Comparative in Vitro and in Silico Model || [21]; PMID 26580610; doi:10.3390/ijms161126029; 21. Lammi C. Zanoni C. Arnoldi A. Three Peptides from Soy Glycinin Modulate Glucose Metabolism in Human Hepatic HepG2 Cells Int. J. Mol. Sci. 2015 16 27362 27370 10.3390/ijms161126029 26580610 PMC4661 ||| ref [6] = [6]; PMID 25690031; doi:10.3390/ijms16024150; 6. Soares R.A. Mendonça S. De Castro L. Menezes A.C. Arêas J.A. Ívini Major Peptides from Amaranth (Amaranthus cruentus) Protein Inhibit HMG-CoA Reductase Activity Int. J. Mol. Sci. 2015 16 4150 4160 ||| ref [4],[16] = [4]; PMID 24972343; doi:10.1021/jf500795b; 4. Lammi C. Zanoni C. Scigliuolo G.M. D’Amato A. Arnoldi A. Lupin Peptides Lower Low-Density Lipoprotein (LDL) Cholesterol through an Up-regulation of the LDL Receptor/Sterol Regulatory Element Bindin || [16]; doi:10.1016/j.jff.2017.02.009; 16. Zanoni C. Aiello G. Arnoldi A. Lammi C. Investigations on the hypocholesterolaemic activity of LILPKHSDAD and LTFPGSAED, two peptides from lupin beta-conglutin: Focus on LDLR and PCSK9 pathways J; details: cited from earlier work
T1 construct: purchased Sigma (Sigma-Aldrich, St. Louis, MO, USA)
T1 sequence (P04035 426-888 limits assumed): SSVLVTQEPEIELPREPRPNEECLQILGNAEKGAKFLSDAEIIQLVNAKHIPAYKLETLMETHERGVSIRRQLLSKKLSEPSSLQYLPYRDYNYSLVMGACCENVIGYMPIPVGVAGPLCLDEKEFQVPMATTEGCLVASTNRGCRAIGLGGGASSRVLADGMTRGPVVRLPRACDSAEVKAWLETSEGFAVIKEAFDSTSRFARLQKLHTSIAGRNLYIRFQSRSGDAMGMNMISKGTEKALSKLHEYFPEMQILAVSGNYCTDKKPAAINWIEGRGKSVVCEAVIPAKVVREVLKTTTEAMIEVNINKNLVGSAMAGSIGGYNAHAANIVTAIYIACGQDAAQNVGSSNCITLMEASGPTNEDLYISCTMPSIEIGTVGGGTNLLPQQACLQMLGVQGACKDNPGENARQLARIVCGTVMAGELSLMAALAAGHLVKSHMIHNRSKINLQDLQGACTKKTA

[2] = tested on: PCSK9; details: cited from earlier work
Description: It is important to observe that some natural PCSK9 mutations affect its affinity for the LDLR. In particular, the gain of function (GOF) mutant D374Y binds more avidly to the LDLR than the wild-type (WT) PCSK9. The consequence is an approximately tenfold increased capacity of reducing the LDLR protein level. Accordingly, subjects with this PCSK9^D374Y mutation have very high LDL-C levels and are at high risk of atherosclerosis. In light of these observations, PCSK9 is currently considered a new target for the treatment of hypercholesterolemia, and the development of novel PCSK9 inhibitor ... || In this panorama, lupin protein hydrolysates, obtained by treating the proteins with pepsin and trypsin, show synergistic hypocholesterolemic effects through the modulation of both HMGCoAR and PCSK9 targets. […] Furthermore, these lupin hydrolysates impair the protein–protein interaction (PPI) betwe ... || Taking into account all this information, it is possible to affirm that there is an interesting similarity between the hypocholesterolemic behaviors of T9 and P5.

[3] = tested on: SREBP-2 transcription factor; details: ref [16]; cited from earlier work
Description: (§1) Taking into account all this information, it is possible to affirm that there is an interesting similarity between the hypocholesterolemic behaviors of T9 and P5.

[4] = tested on: HNF-1α; details: ref [16]; cited from earlier work
Description: as §1

[5] = tested on: HMGCoAR protein levels; details: reference not given; presumably ref [16]; cited from earlier work
Description: as §1

[6] = tested on: PCSK9-LDLR protein–protein interaction; details: ref [15]; cited from earlier work
Description: (§2) In this panorama, lupin protein hydrolysates, obtained by treating the proteins with pepsin and trypsin, show synergistic hypocholesterolemic effects through the modulation of both HMGCoAR and PCSK9 targets. […] In parallel, we have also predicted by in silico experiments that T9 had the potential capability of inhibiting the HMGCoAR activity.

[7] = tested on: LDL uptake by HepG2 cells; details: cited from earlier work
Description: as §2

[8] = tested on: LDLR in HepG2 cells; details: ref [16]; cited from earlier work
Description: In this panorama, lupin protein hydrolysates, obtained by treating the proteins with pepsin and trypsin, show synergistic hypocholesterolemic effects through the modulation of both HMGCoAR and PCSK9 targets. […] Furthermore, these lupin hydrolysates impair the protein–protein interaction (PPI) betwe ... || Taking into account all this information, it is possible to affirm that there is an interesting similarity between the hypocholesterolemic behaviors of T9 and P5.

[9] = soybean glycinin peptides, ref [19],[20],[21], read-out: IC50, HMGCoAR activity
[10] = lupin β-conglutin peptides (pepsin), in vitro, ref [16],[18], read-out: IC50, HMGCoAR activity

## VGVL
[1]; amaranth peptide, ref [6], read-out: concentration inhibiting HMGCoAR by 50%
  pIC50: 4.28
[1]; amaranth protein hydrolysis peptides, ref [6]
  HMGCoAR inhibition (in words): direct inhibition of the reductase activity

## IAVPTGVA [soybean peptide from glycinin hydrolysis]
[1]; [9]
  pIC50: 3.61

## COc1ccc2cc3[n+](cc2c1OC)CCc1cc2c(cc1-3)OCO2 [berberine]
[2]; ref [14]
  PCSK9 pathway (in words): modulate the PCSK9 pathway

## YVVNPDNNEN [soybean peptide from β-conglycinin]
[1]; soybean β-conglycinin peptides, ref [19],[20],[21], read-out: IC50, HMGCoAR activity
  pIC50: 3.70

## LTFPGSAED [P7, absorbable peptide deriving from hydrolysis of lupin β-conglutin with pepsin]
[1]; [10]
  pIC50: 4.16

## YDFYPSSTKDQQS [P3, absorbable peptide deriving from hydrolysis of lupin β-conglutin with pepsin]
[1]; [10]
  pIC50: 4.15

## LPYP [soybean peptide from glycinin hydrolysis]
[1]; [9]
  pIC50: 3.52

## LILPKHSDAD [P5, absorbable peptide deriving from hydrolysis of lupin β-conglutin with pepsin]
[3]
  SREBP-2 transcription factor activation (in words): augmentation of the SREBP-2 transcription factor activation
[4]
  HNF-1α level (in words): decrease of HNF-1α
[5]
  HMGCoAR protein levels (in words): does not diminish the HMGCoAR protein levels
[6]
  effect on PPI between PCSK9 and LDLR (in words): able to affect the PPI between PCSK9 and the LDLR
[7]; HepG2 cells, ref [15]
  ability of HepG2 cells to clear / absorb extracellular LDL (in words): increased ability of HepG2 cells to clear extracellular LDL
[7]; ref [16]
  capacity of HepG2 cells to clear LDL (in words): enhanced capacity of HepG2 cells to clear LDL from the extracellular space
[1]; [10]
  pIC50: 3.83
[2]; ref [16]
  PCSK9-WT protein level (in words): decrease of PCSK9-WT protein level
  selectivity, PCSK9-WT pathway modulation (in words): selective toward the PCSK9-WT pathway modulation
[8]
  LDLR protein levels (in words): increase of the LDLR protein levels

## IAVPGEVA [soybean peptide from glycinin hydrolysis]
[1]; [9]
  pIC50: 3.65
